As a reminder, the IC50 is the point on the concentration scale where inhibition reaches its midpoint.

Among the data in ChEMBL document CHEMBL5727895, “Nitrogen-containing heteroaryl compound and pharmaceutical use thereof” (2020) are IC50 values, retold here.

Each structure is given as a SMILES string.

The test in a line: Evaluation of GLUT9 Inhibitory Activity: Uricase/Hyper transiently-transfected human GLUT9 stably expressing cells or mock cells (blank) were seeded in a 96 well plate (Corning) at 1.6×10^5 cells/well, and cultured overnight at 37° C., 5% CO2. D-MEM/high glucose (Wako Pure Chemical Industries, Ltd.) containing 10% Fetal Bovine Serum (Lifetechnology) and 100 units/ml penicillin/100 μg/ml streptomycin (GIBCO) was used as a medium. High K− buffer (129.8 mM KCl, 1.2 mM KH2PO4, 1.2 mM MgSO4.7H2O, 1.3 mM CaCl2. 2H2O, 25 mM HEPES, pH 7.4 with 1 M Tris) and the medium were mixed in equal amount to prepare Assay Buffer. The medium in each well was removed, and the test compound solution (final 1% DMSO) diluted with Assay Buffer was added thereto at 50 μl/well, and the mixture was left stand at room temperature for 30 to 60 min. For the solvent control and blank, Assay Buffer containing DMSO alone was added at 50 μl/well, and the mixture was left stand at room temperature for 30 to 60 min. In addition, uric acid solution (containing [14C]uric acid as a tracer) diluted with Assay Buffer was added to each well at 15 μl/well (final 300 μM uric acid), and the uptake reaction was performed at room temperature for 6 min. After the completion of the reaction, the cells were washed three times with ice-cooled Wash Buffer (Hank's Balanced Salt Solution containing 0.01% Bovine Serum Albumin) at 150 μl/well, and 0.1N aqueous NaOH solution was added thereto at 25 μl/well to dissolve the cell. MicroScint-20 (Perkin-Elmer) was added thereto at 150 μl/well, the plate was shaked, and CPM of [14C] was measured by TopCount NXT (Perkin-Elmer).Data was obtained by deducting average of CPM in blank well from average of CPM in each treated well. The inhibitory rate of the test compound in each concentration was calculated from the following formula: [(A−B)/A]×100, A is data of solvent control, B is data of test compound treatment.
`COc1ccc(-c2ncc(CC3CCCC3)cc2-c2ccc(C(=O)O)cc2)cc1`: the IC50 is 842 nM.

As to `CCCCc1cnc(-c2ccc(OC)cc2)c(-c2ccc(C(=O)O)cc2)n1`, the IC50 is 141 nM. The same measure for `CCCCc1cnc(-c2cc(F)c(OC)c(F)c2)c(-c2ccc(C(=O)O)cc2)c1`: 57.8 nM; for `COCCCc1cnc(-c2ccc(OC)cc2)c(-c2ccc(CCC(=O)O)cc2)n1`: 91.8 nM. The same measure for `CCCCc1cnc(-c2ccc(OC)c(F)c2)c(-c2ccc(C(=O)O)cc2)c1`: 89.2 nM. The same measure for `CCCc1cnc(-c2cc(F)c(OC)c(F)c2)c(-c2ccc(C(=O)O)cc2)c1`: 72 nM; for `CCCc1cnc(-c2ccc(OC)cc2)c(-c2ccc(C(=O)O)cc2)c1`: 89 nM; for `CCCCc1cnc(-c2ccc(C)cc2)c(-c2ccc(C(=O)O)cc2)c1`: 340 nM. On to `CCCCCc1cnc(-c2ccc(OC)cc2)c(-c2ccc(C(=O)O)cc2)c1`, for which the IC50 is 50.6 nM. For `CCCCc1cnc(-c2ccc(CC)c(C)c2)c(-c2ccc(C(=O)O)cc2)n1`, the half-maximal inhibitory concentration (IC50) was 150 nM.

In the case of `CCCCc1cnc(-c2ccc(OC)cc2)c(-c2ccc(C(=O)O)cc2)c1F`, the IC50 was 83.7 nM.

Regarding `COCCCCc1cnc(-c2ccc(C(F)(F)F)cc2)c(-c2ccc(C(=O)O)cc2)n1`, the IC50 was 158 nM. For `COc1ccc(-c2ncc(CC3CCC3)cc2-c2ccc(C(=O)O)cc2)cc1`, the IC50 was 192 nM.
